# Where a name gives a salt, the structure may show the parent alone. Read-outs that look alike come from different tables or passages of the source.
# Tests used:
# [1] = system: HDAC (HeLa cell extract); experiment: Primary assay: deacetylase activity, HeLa cell extract as source of HDAC; assay type: biochemical, human; settings: HeLa cell extract; for HDAC Inhibition HeLa, percent / percent HDAC inhibition at the stated concentration: @ 500 nM
# Source text: Briefly, this assay relies on the release of radioactive acetate from a radioactively labelled histone fragment by the action of HDAC enzyme. Test compounds, which inhibit HDAC, reduce the yield of radioactive acetate. Signal (e.g., scintillation counts) measured in the presence and absence of a test compound provide an indication of that compound's ability to inhibit HDAC activity. Decreased activity indicates increased inhibition by the test compound.
# The histone fragment was an N-terminal sequence from histone H4, and it was labelled with radioactively labelled acetyl groups using tritiated acetylcoenzyme A (coA) in conjunction with an enzyme which is the histone acetyltransferase domain of the transcriptional coactivator p300. […] The acetylated peptide was then separated from free acetyl coA by size exclusion chromatography on Sephadex G-15 (Sigma G-15-120), using distilled H2O as the mobile phase.
# After purification of the radiolabelled histone fragment, it was incubated with a source of HDAC (e.g., an extract of HeLa cells (a rich source of HDAC), recombinantly produced HDAC1 or HDAC2) and any released acetate was extracted into an organic phase and quantitatively determined using scintillation counting. By including a test compound with the source of HDAC, that compound's ability to inhibit the HDAC was determined.
# The HeLa cell extract was made from HeLa cells (ATCC Ref. No. CCL-2) by freeze-thawing three times in 60 mM TrisCl pH 8.0, 450 mM NaCl, 30% glycerol. Two cell volumes of extraction buffer were used, and particulate material was centrifuged out (20800 g, 4° C., 10 min). The supernatant extract having deacetylase activity was aliquotted and frozen for storage.
# A source of HDAC (e.g., 2 μL of crude HeLa extract, 5 μL of HDAC1 or HDAC2; in elution buffer, as above) was incubated with 3 μL of radioactively labelled peptide along with appropriate dilutions of candidate compounds (1.5 μL) in a total volume of 150 μL of buffer (20 mM Tris pH 7.4, 10% glycerol). The reaction was carried out at 37° C. for one hour, after which the reaction was stopped by adding 20 μL of 1 M HCl/0.4 M sodium acetate. […] Radioactivity was measured using a Tri-Carb 2100TR Liquid Scintillation Analyzer (Packard).
# Percent activity (% activity) for each test compound was calculated as: % activity={(S^C−B)/(S^o−B)}×100 wherein S^C denotes signal measured in the presence of enzyme and the compound being tested, S^o denotes signal measured in the presence of enzyme but in the absence of the compound being tested, and B denotes the background signal measured in the absence of both enzyme and compound being tested.
# [2] = system: HeLa cells; experiment: Secondary assay: cell proliferation WST-1, HeLa; assay type: cell-based; settings: Homo sapiens, 48 h, read-out: Cell Proliferation Inhibition WST-1 (IC50 unless otherwise specified) HeLa
# Experimental: Compounds with HDAC inhibition activity, as determined using the primary assay, were subsequently evaluated using secondary cell-based assays. The following cell lines were used:
# HeLa—Human cervical adenocarcinoma cell line (ATCC ref. No. CCL-2).
# Cells were plated in 96-well plates at 3-10×10^3 cells/well in 100 μL of culture medium. The following day, different concentrations of candidate compounds were added and the cells incubated at 37° C. for 48 h. Subsequently, 10 μL/well of WST-1 reagent was added and the cells reincubated for 1 hour. After the incubation time, absorbance was measured.
# WST-1 is a tetrazolium salt which is cleaved to formazan dye by cellular enzymes. An expansion in the number of viable cells results in an increase in the overall activity of mitochondrial dehydrogenases in the sample. This augmentation in the enzyme activity leads to an increase in the amount of formazan dye formed, which directly correlates to the number of metabolically active cells in the culture. The formazan dye produced is quantified by a scanning multiwell spectrophotometer by measuring the absorbance of the dye solution at 450 nm wavelength (reference wavelength 690 nm).
# Percent activity (% activity) in reducing the number of viable cells was calculated for each test compound as: % activity={(S^C−B)/(S^o−B)}×100 wherein S^C denotes signal measured in the presence of the compound being tested, S^o denotes signal measured in the absence of the compound being tested, and B denotes the background signal measured in blank wells containing medium only.
# IC50 values were calculated using the software package Prism 3.0 (GraphPad software Inc., San Diego, Calif.), setting top value at 100 and bottom value at 0.
# [3] = read-out: HDAC Inhibition (IC50 unless otherwise specified) HeLa
Structure (SMILES),melting point,"HDAC Inhibition HeLa, percent [1]",other results
"O=C(/C=C/c1ccncc1)NCCCCCC(=O)NO (as salt: oxalate) [PX106521, (E)-N-(5-Hydroxycarbamoylpentyl)-3-pyridin-4-yl-acrylamide oxalate]",168 to 170 °C,–,–
"O=C(/C=C/c1ccccn1)NCCCCCC(=O)NO (as salt: oxalate) [PX106528, (E)-N-(5-Hydroxycarbamoylpentyl)-3-pyridin-2-yl-acrylamide oxalate]",126 to 128 °C,–,–
"O=C(CCCCCNC(=O)CCc1ccco1)NO [PX105827, 6-(3-Furan-2-yl-propionylamino)-hexanoic acid hydroxyamide]",127 to 128 °C,34% @ 500 nM,percent HDAC inhibition at the stated concentration ([1]; comparative tables): 34% @ 500 nM
"O=C(CCCCCNC(=O)Cc1ccc(-c2ccccc2)cc1)NO [PX106488, 6-(2-Biphenyl-4-yl-acetylamino)-hexanoic acid hydroxyamide]",226 to 227 °C,51% @ 500 nM,percent HDAC inhibition at the stated concentration ([1]; comparative tables): 51% @ 500 nM
"O=C(CCCCNC(=O)c1ccc2ccccc2c1)NO [PX106492, Naphthalene-2-carboxylic acid (4-hydroxycarbamoyl-butyl)-amide]",155 to 156 °C,42% @ 500 nM,–
"O=C(CCCCCNC(=O)c1ccc(I)cc1)NO [PX106494, N-(5-Hydroxycarbamoylpentyl)-4-iodobenzamide]",168 to 169 °C,–,"IC50 [1, 3]: 0.1 µM"
"O=C(CCCCCNC(=O)c1ccc([N+](=O)[O-])cc1)NO [PX106495, N-(5-Hydroxycarbamoylpentyl)-4-nitrobenzamide]",139.5 to 141 °C,34% @ 500 nM,–
"N#Cc1ccc(C(=O)NCCCCCC(=O)NO)cc1 [PX106497, 4-Cyano-N-(5-hydroxycarbamoylpentyl)-benzamide]",234 to 236 °C,30% @ 500 nM,–
"O=C(CCCCCNC(=O)CCc1ccccc1)NO [PX106516, 6-(3-Phenylpropionylamino)hexanoic acid hydroxyamide]",107 °C,27% @ 500 nM,–
"COc1ccc(/C=C/C=C/C(=O)NCCCCCC(=O)NO)cc1 [PX106524, (2E,4E)-(4-Methoxyphenyl)penta-2,4-dienoic acid (5-hydroxycarbamoylpentyl)-amide]",152 to 154 °C,57% @ 500 nM,–
"O=C(CCCCCNC(=O)C/C=C/c1ccccc1)NO [PX116211, (E)-N-[6-(Hydroxyamino)-6-oxohexyl]-4-phenyl-3-butenamide]",127 to 128 °C,–,–
"O=C(/C=C/c1cccc(NC(=O)CCCc2ccccc2)c1)NO [PX116212, (E)-N-Hydroxy-3-{3-[(4-phenylbutanoyl)amino]phenyl}-2-propenamide]",152 to 153 °C,72% @ 500 nM,–
"COc1ccc(C(=O)NCCCCCC(=O)NO)cc1OC [PX116213, N-[6-(Hydroxyamino)-6-oxohexyl]-3,4-dimethoxybenzamide]",133 °C,48% @ 500 nM,–
"O=C(CCCCCNC(=O)Cc1c[nH]c2ccccc12)NO [PX116214, 6-(2-1H-lndol-3-yl-acetylamino)-hexanoic acid hydroxyamide]",130 to 131.5 °C,35% @ 500 nM,–
"O=C(CCCCCNC(=O)c1ccc(Br)cc1)NO [PX116215, 4-Bromo-N-(5-hydroxycarbamoyl-pentyl)-benzamide]",164 to 166 °C,70% @ 500 nM,–
"O=C(CCCCC(=O)NCCc1c[nH]c2ccccc12)NO [PX116217, Hexanedioic acid hydroxyamide [2-(1H-indol-3-yl)-ethyl]-amide]",121 to 122.5 °C,17% @ 500 nM,–
"O=C(CCCCCCC(=O)Nc1cccc2ccccc12)NO [PX116218, Octanedioic acid hydroxyamide naphthalen-1-ylamide]",115 to 116.5 °C,–,"IC50 [1, 3]: 0.033 µM"
"O=C(CCCCCNC(=O)c1ccc(Br)o1)NO [PX116221, 5-Bromo-furan-2-carboxylic acid (5-hydroxycarbamoyl-pentyl)-amide]",122 to 124 °C,72% @ 500 nM,–
"O=C(CCCCCCC(=O)NCCc1cccc2ccccc12)NO [PX116224, Octanedioic acid hydroxyamide (2-naphthalen-1-yl-ethyl)-amide]",120 to 121.5 °C,78% @ 500 nM,–
"O=C(/C=C/c1ccc(NC(=O)Cc2cccc3ccccc23)cc1)NO [PX116244, (E)-N-Hydroxy-3-(4-{[2-(1-naphthyl)acetyl]amino}phenyl)-2-propenamide]",–,–,"IC50 [2]: < 0.31 µM; IC50 [1, 3]: 0.022 µM"
"O=C(/C=C/c1ccc(-c2cc(C(F)(F)F)cc(C(F)(F)F)c2)o1)NCCCCCC(=O)NO [PX117224, (E)-3-{5-[3,5-bis(trifluoromethyl)phenyl]-2-furyl}-N-[6-(hydroxyamino)-6-oxohexyl]2-propenamide]",–,81% @ 500 nM,IC50 [2]: 26 µM
"O=C(/C=C/C=C/c1cccc2ccccc12)NCCCCCC(=O)NO [PX117237, (2E)(4E)-5-Naphthalen-1-yl-penta-2,4-dienoic acid (5-hydroxycarbamoylpentyl)amide]",–,–,"IC50 [2]: 17 µM; IC50 [1, 3]: 0.063 µM; IC50 ([1]; comparative tables, read-out: HeLa IC50): 0.063 µM"
"Cn1cccc1/C=C/C(=O)NCCCCCC(=O)NO [PX117239, E-3-(1-Methyl-1H-pyrrol-2-yl)-N-(5-hydroxycarbamoylpentyl)-acrylamide]",–,85% @ 500 nM,IC50 [2]: 10 µM
"C/C(=C\C(=O)NCCCCCC(=O)NO)c1ccccc1 [PX117254, E-3-Phenylbut-2-enoic acid (5-hydroxycarbamoylpentyl)-amide]",–,–,"IC50 [2]: 6.6 µM; IC50 [1, 3]: 0.04 µM"
"O=C(/C=C/C=C/c1ccccc1Cl)NCCCCCC(=O)NO [PX117255, (2E)(4E)-5-(2-Chlorophenyl)penta-2,4-dienoic acid (5-hydroxycarbamoylpentyl)amide]",–,–,"IC50 [2]: 18 µM; IC50 [1, 3]: 0.05 µM"

# Further lines, with some results ahead:
melting point,Structure (SMILES),"HDAC Inhibition HeLa, percent [1]",other results
157 to 159 °C,"O=C(/C=C/c1cccnc1)NCCCCCC(=O)NO (as salt: oxalate) [PX116231, E-N-(5-Hydroxycarbamoyl-pentyl)-3-pyridin-3-yl-acrylamide oxalate]",–,–
155 to 156.5 °C,"O=C(CCCCCCC(=O)NC(c1ccccc1)c1ccccc1)NO [PX117417, N^1-benzhydryl-N^8-hydroxyoctanediamide]",56% @ 500 nM,–
126 to 126.5 °C,"O=C(CCCCCCC(=O)NCc1ccccc1)NO [PX117418, Octanedioic acid benzylamide hydroxyamide]",39% @ 500 nM,–
113 to 115 °C,"O=C(CCCCCNC(=O)Cc1csc2ccccc12)NO [PX117442, 6-(2-Benzothiophen-3-yl-acetylamino)-hexanoic acid hydroxyamide]",31% @ 500 nM,–

# — patent US7569724B2, “Carbamic acid compounds comprising an amide linkage as HDAC inhibitors” (Topotarget UK Limited, priority 2000, dated 2009)
